Patent US9309187B2, “EP2 receptor agonists” (TAKEDA GMBH, priority 2012, dated 2016)

How the values were obtained:
[1] = biological target: T1, human prostanoid receptor EP2 (Homo sapiens, UniProt P43116); test: EP2 cAMP release assay in CHOp6CreLuc-huEP2 cells (CRE-luciferase readout); format: cell-based; conditions: CHOp6CreLuc-huEP2 cells, 4 hours at 37° C.; reported as range bins; read-out: EP2 cAMP release assay pEC50 (-log EC50) (converted)
T1 construct: expressed in transfected cells; host or cells: CHO-K1 (CHOp6CreLuc-huEP2)
Procedure: Method for Measuring cAMP Release in Human EP2 Stably Transfectant Cells:
The potency and efficacy of EP2 agonists have been determined via measuring cAMP release in stably transfectant CHO-K1 cell expressing the human prostanoid receptor EP2 and luciferase enzyme regulated via a 6 times CRE (cAMP response element) containing transcriptional promoter. CHOp6CreLuc-huEP2 cells were seeded into 384-well plate (1000 cells per well) in DMEM/F12 (Dulbecco's Modified Eagle Medium/Nutrient Mixture F12) cell culture medium containing 2% FCS (Fetal Calf Serum) and 500 μg/ml G418 24 hours prior to the experiment. Test compound was added as serial dilutions while keeping the final DMSO concentration constant in each well. […] Cells were incubated together with test compound or butaprost for 4 hours at 37° C. The cAMP release was determined indirectly via luciferase activity that directly correlated to the amount of luciferase enzyme expressed in response to cAMP regulated promoter activity. The luciferase activity was determined by addition of luciferin containing buffer and subsequent quantification of resulting luminescence. Each sample was measured in quadruplicates per experiment and half-maximal effective concentration (EC50) and relative maximal effect compared to butaprost was determined from 3 independent experiments with GraphPad Prism Software. A compound that achieved over 80% of the maximal effect of butaprost was considered as full agonist.
For the following compounds the potency was determined in the cAMP release assay applying human EP2 transfectant CHOp6CreLuc-huEP2 cells. […] The numbers of the compounds correspond to the examples numbers.
EP2 cAMP Release Assay: pEC50

[2] = biological target: T2, human EP2 receptor (Homo sapiens, UniProt P43116); test: EP2 binding assay (PGE2 displacement); conditions: recombinant human EP2 membranes, 1 nanoM [3H]-PGE2; reported as range bins; read-out: EP2 binding (PGE2 displacement) pIC50 (-log IC50) (converted)
T2 construct: purchased Millipore
Procedure: Method for Measuring Inhibition of PGE2 Binding to the Human Prostanoid Receptor EP2:
Human EP2 receptor equilibrium competition binding assays were performed according to Abramovitz et al. (M. Abramovitz et al. 2000, Biochimica et Biophysica Acta 1483: 285-293) in a final incubation volume of 100 microL in 50 milliM Bis-Tris, pH6.0 in 96-well plates. Radiolabelled Prostaglandin E2 (PGE2) (1 nanoM [^3H]-PGE2 purchased from Perkin Elmer) was added to the assay as competitive ligand. Test compounds stored as Dimethylsulfoxide (DMSO) stock solutions were added to the assay in serial dilutions in assay buffer while keeping the final DMSO concentration equal in each sample. The reaction was initiated by addition of membrane proteins harbouring human EP2 receptor (ChemiSCREEN™ membrane preparation recombinant human EP2 prostanoid receptor that was purchased by Millipore). Total binding was determined in the absence of test compound or PGE2 and non-specific binding was determined in the presence of 1 microM PGE2. Incubations were conducted for 60 minutes at room temperature until equilibrium was reached and terminated by filtration through GF/B filter (Perkin Elmer) prewetted with 0.3% PEI solution. Unbound radiolabelled PGE2 was removed by 8 wash cycles with the same buffer under ice-cold conditions and the filters containing the residual radioactivity were dried for 60 minutes at 60° C. In order to measure the filter bound radioactivity, 40 microL microscint (scintillation liquid) was added to each filter and the chemiluminescence was determined by TopCount-NTX™. The specific binding was calculated by subtracting non-specific binding from each sample. Percent inhibition by test compounds was calculated based on specific binding without test compound. Each sample was measured in triplicates per experiment and for the calculation of the pIC50 at least 2 independent experiments were performed. Determination of half maximal inhibiting concentration (IC50) was performed with GraphPad Prism Software.
(§1) The numbers of the compounds correspond to the examples numbers.
EP2 Binding Assay (PGE2 Displacement): pIC50 Values

[3] = test system: normal human lung fibroblasts (NHLF), TGFβ-induced alpha-smooth muscle actin; test: Inhibition of the myofibroblast transition of normal human lung fibroblasts (NHLF); format: cell-based; conditions: Fibroblast; 1 ng/mL human TGFβ, 24 h, alpha-smooth muscle actin western blot; read-out: inhibition of NHLF myofibroblast transition pIC50 (-log IC50) (converted)
Procedure: Method for Determination of the Inhibition of the Myofibroblast Transition of Normal Human Lung Fibroblasts (NHLF)
200,000 NHLF-cells were seeded into each well of six-well cell culture plates in full-medium and starved for 24 h after initial 24 h incubation at 37° C., 5% CO2 and 95% humidity. Before inducing fibroblast-to-myofibroblast conversion by adding 1 ng/mL human TGFβ serial dilution of test compound was administered. After 24 h the cells were collected and processed to lysates as described subsequently.
Cells were washed, twice in PBS, trypsinated and centrifuged at 500×g for 10 min. Afterwards the cell pellet was resuspended in 150 microL freshly prepared lysis buffer (50 mM Hepes, pH 7.5, 150 mM NaCl, 1.5 mM MgCl2, 10% […], 1% Triton X-100, 0.5% Desoxycholat, 0.2% SDS, 1 mM EGTA (ethylene glycol tetraacetic acid), 100 mM NaF, 10 mM Na4P2O7, 1 mM Na-Vanadat, 1 mM PMSF and 50 U/mL Benzonase (Merck KGaA, Darmstadt, Germany), one Phosphatase Inhibitor Cocktail tablet (Complete Mini from Roche Diagnostics, Mannheim, Germany) per 10 ml buffer and stored at −80° C. for further use. Protein concentration was determined following instructions of the BCA Protein Assay (Pierce Biotechnology, Rockford, Ill., USA). Photometric measurements were performed with the microplate reader Sunrise from Tecan Group Ltd., (Männedorf, Switzerland). 6 μg of protein of the different samples were separated on a 10% SDS (Sodium Dodecyl Sulfate) discontinuous polyacrylamide gel electrophoresis. Thereafter, proteins were blotted from the gel onto a nitrocellulose transfer membrane for 2 h at 400 mA in a wet-blot-chamber. Thereafter the membrane was blocked in 5% milkpowder in PBS (Phosphate Buffered Saline) containing 0.1% Tween 20 at 4° C. overnight. Subsequently the membrane was hybridized for 4 h with the primary anti-Alpha-smooth muscle actin antibody (1:2,000 in 5% milkpowder in PBS), washed three times in PBS containing 0.1% Tween 20. This was followed by incubation with the secondary horseradish-coupled goat anti-mouse IgG detection-antibody (1:10,000 in 5% milkpowder in PBS) for 2 h. After final washing with PBS containing 0.1% Tween 20 (three times for 10 min each) the blot was developed by using a chemiluminescence detection system according to the manufacturer instructions and a luminescent image analyzer (Fuji LAS 1000 Pro).
as §1

T2 sequence (P43116 whole entry): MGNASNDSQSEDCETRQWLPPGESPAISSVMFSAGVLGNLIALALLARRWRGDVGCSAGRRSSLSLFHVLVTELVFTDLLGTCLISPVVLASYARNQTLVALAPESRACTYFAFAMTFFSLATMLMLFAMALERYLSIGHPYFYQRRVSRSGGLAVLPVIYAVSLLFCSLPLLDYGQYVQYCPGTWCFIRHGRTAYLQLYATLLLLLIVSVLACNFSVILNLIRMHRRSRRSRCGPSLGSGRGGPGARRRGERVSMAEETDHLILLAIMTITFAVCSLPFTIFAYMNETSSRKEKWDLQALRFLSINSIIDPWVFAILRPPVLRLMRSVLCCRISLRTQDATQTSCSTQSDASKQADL
T1 sequence (P43116 whole entry): as above

SMILES	EC50 [1]	IC50 [2]	IC50 [3]
O=C(O)/C=C/c1ccc(Cl)c(NC(=O)c2cc(-c3ccccc3)cc3ccccc23)c1 [Example 3, (2E)-3-(4-chloro-3-{[(3-phenylnaphthalen-1-yl)carbonyl]amino}phenyl)prop-2-enoic acid]	0.00631 to 0.1 nM	1.26 to 10 nM	
O=C(O)/C=C/c1ccc(F)c(NC(=O)c2cc(-c3cccc(F)c3)cc3ccccc23)c1 [Example 10, (2E)-3-{3-[({3-[3-fluorophenyl]naphthalen-1-yl}carbonyl)amino]-4fluorophenyl}prop-2-enoic acid]	0.00631 to 0.1 nM	1.26 to 10 nM	0.316 to 3.16 nM
O=C(O)/C=C/c1cccc(NC(=O)c2cc(-c3ccccc3)cc3ccccc23)c1 [Example 1, (2E)-3-(3-{[(3-phenylnaphthalen-1-yl)carbonyl]amino}phenyl)prop-2-enoic acid]	0.00631 to 0.1 nM	1.26 to 10 nM	0.316 to 3.16 nM

The next lines start with results.

EC50 [1]	IC50 [2]	SMILES	IC50 [3]
0.00631 to 0.1 nM	1.26 to 10 nM	O=C(O)/C=C/c1ccc(F)c(NC(=O)c2cc(-c3ccccc3F)cc3ccccc23)c1 [Example 9, (2E)-3-{3-[({3-[2-fluorophenyl]naphthalen-1-yl}carbonyl)amino]-4fluorophenyl}prop-2-enoic acid]	0.316 to 3.16 nM
0.00631 to 0.1 nM	1.26 to 10 nM	O=C(O)/C=C/c1ccc(F)c(NC(=O)c2cc(-c3ccccc3)cc3ccccc23)c1 [Example 2, (2E)-3-(4-fluoro-3-{[(3-phenylnaphthalen-1-yl)carbonyl]amino}phenyl)prop-2-enoic acid]	0.316 to 3.16 nM
